Reference: patent publication US11607424B2, “Carbon-rich micro-particles for protecting bees and overcoming colony collapse disorder” (WASHINGTON STATE UNIVERSITY, priority 2018, dated 2023)

Test system: honey bees
Experiment: Detoxification effects: caged adult bees chronically exposed orally to 50 ppb Thiamethoxam with or without CMPs
Type: in vivo
Conditions: 50 ppb TXM, absence of CMPs
Description: A total of 70 plastic cages (15 cm×8 cm×10 cm) with a removable cover were used FIGS. 4A and B). Adult honey bees were collected from broods of at least seven colonies and homogenously distributed in all control and experimental cages to eliminate possible colony-level effects on the results. Cages were loaded with 100 bees per cage and then incubated in complete darkness at 30° C. and 70% relative humidity (RH). Bees were fed a sugar solution (50% w/v). The CMPs were administered at a concentration of 1% w/v in the sugar solution and delivered to experimental cages on day 2. Stock solutions of Thiamethoxam (TXM) (3-[(2-Chloro-1,3-thiazol-5-yl)methyl]-5-methyl-N-nitro-1,3,5-oxadiazinan-4-imine) were prepared from analytical grade TMX (Sigma Aldrich 37924-100MG-R) at concentration of 30 mg/L in E-pure water, and maintained at 4° C. The pesticide was administered at a concentration of 50 ppb on day 2. […]
Treatments were arranged in a completely randomized design. […] The mortality rates and feed consumption were recorded daily. Production and morphology of bee feces (frass) were assessed to ensure that CMPs passed through the bees digestive system with no harm. Bee behavior and activity (i.e. number of falls per 30 seconds, inability to climb, etc.) were also assessed. Dispensability of the CMPs in the sugar solutions were also assessed during the experiments. […]

CN1COCN(Cc2cnc(Cl)s2)C1=N[N+](=O)[O-] [TXM, 3-[(2-Chloro-1,3-thiazol-5-yl)methyl]-5-methyl-N-nitro-1,3,5-oxadiazinan-4-imine]
bee deaths (daily die-off) on day 2: 2.5% | bee deaths (daily die-off) on day 5: 21%
